Tests used:
Conditions in all cases: stereoisomer not certain
[1] = HILIC, Waters ACQUITY UPLC BEH Amide, 150 × 2.1 mm, 1.7 µm, 40 °C, 0.5 mL/min, estimated dead time 0.66 min; A: 5% water + 95% acetonitrile; B: 70% water + 30% acetonitrile + 10 mM ammonium formate, pH 6.5; gradient (min/%B) 0/0 2/0 20/70 23/70 24/0 31/0
[2] = RP, Phenomenex Kinetex C18, 150 × 2.1 mm, 1.7 µm, 30 °C, 0.3 mL/min, estimated dead time 1.1 min; A: water + 0.1% formic acid, pH 3; B: acetonitrile + 0.1% formic acid, pH 3; gradient (min/%B) 0/2 14/100 17/100 17.1/2 25/2
[3] = HILIC, Merck SeQuant ZIC-pHILIC, 150 × 2.1 mm, 5 µm, 40 °C, 0.3 mL/min, estimated dead time 1.1 min; A: acetonitrile; B: water + 2.8 mM ammonium formate, pH 9; gradient (min/%B) 0/5 1/5 10/51 13/51 13.1/5 20/5
[4] = RP, Phenomenex Kinetex C18, 150 × 2.1 mm, 1.7 µm, 30 °C, 0.3 mL/min, estimated dead time 1.1 min; A: water + 0.1% formic acid, pH 3; B: acetonitrile + 0.1% formic acid, pH 3; gradient (min/%B) 0/2 14/100 17/100 17.1/2 25/2; remark: listed apart in the source

| SMILES | LC retention time [1] | LC retention time [2] | LC retention time [3] | LC retention time [4] |
| --- | --- | --- | --- | --- |
| Cc1cc2nc3[nH]c(=O)[nH]c(=O)c3nc2cc1C [LUMICHROME] | 1.32 min | 6.13 min | 2.06 min | 6.2 min |
| O=C(O)c1ccc(=O)[nH]c1 [6-HYDROXYNICOTINATE] | 5.68 min | 2.61 min | 7.69 min | 2.76 min |
| NC(Cc1ccc(O)cc1)C(=O)O (stereo unspecified) [TYROSINE] | 9 min | 2 min | 8.2 min | 2.11 min |
| Nc1ccn(C2CC(O)C(CO)O2)c(=O)n1 (stereo unspecified) [DEOXYCYTIDINE] | 5.71 min | 1.43 min | 6.63 min | 1.54 min |
| O=c1[nH]c(=O)c2[nH]cnc2[nH]1 [XANTHINE] | 4.97 min | 1.82 min | 6.53 min | 2.05 min |
| Nc1cc([O-])cc(C(=O)O)c1 [3-AMINO-5-HYDROXYBENZOATE] | 2.31 min | 1.62 min | 8.3 min | 1.75 min |
| CC(C)=CCNc1ncnc2nc[nH]c12 [N6-(DELTA2-ISOPENTENYL)-ADENINE] | 1.15 min | 4.91 min | 2.04 min | 5.14 min |
| NC(=O)Cc1c[nH]c2ccccc12 [INDOLE-3-ACETAMIDE] | 0.98 min | 5.26 min | 2.09 min | 5.42 min |

The next lines start with the values.

| LC retention time [1] | LC retention time [2] | LC retention time [3] | LC retention time [4] | SMILES |
| --- | --- | --- | --- | --- |
| 1.99 min | 3.82 min | 3.94 min | 4.07 min | CSCC1OC(n2cnc3c(N)ncnc32)C(O)C1O (stereo unspecified) [METHYLTHIOADENOSINE] |
| 3.11 min | 2.47 min | 5.1 min | 2.62 min | CC(=O)NCCCC(=O)[O-] [4-ACETAMIDOBUTANOATE] |
| 5.11 min | 4.77 min | 5.57 min | 4.98 min | O=C(O)CCCCC1SCC2NC(=O)NC21 (stereo unspecified) [BIOTIN] |
| 2.91 min | 2.54 min | 5.19 min | 2.8 min | Nc1ncnc2c1ncn2C1CC(O)C(CO)O1 (stereo unspecified) [DEOXYADENOSINE] |
| 2.82 min | 2.29 min | 5.08 min | 2.5 min | O=C(O)c1ccnc2ccccc12 [4-QUINOLINECARBOXYLATE] |
| 1.79 min | 2.24 min | 4.42 min | 2.49 min | O=c1[nH]c(=O)c2nccnc2[nH]1 [2,4-DIHYDROXYPTERIDINE] |
